Results: article PMC10857906, “PROTAC-mediated NR4A1 degradation as a novel strategy for cancer immunotherapy” (The Journal of Experimental Medicine, 2024)

Columns and labels:
NR4A1 = molecular target: T1, NR4A1 (Homo sapiens, UniProt P22736); experiment: NR4A1 degradation in A375 human melanoma cells (immunoblotting); type: cell-based; details: 16 h treatment, read-out: 50% degradation concentration (DC50) of NR4A1
T1 construct: NR-V04 effectively promoted the degradation of NR4A1 in two human melanoma cell lines within 16 h; endogenous in cells; host or cells: CHL-1, A375, WM164, M229 human melanoma cells
Experimental: Human melanoma cell lines: A375 and CHL-1 (gifts from Dr. D. Zhou, the University of Texas Health Science Center, San Antonio, TX, USA) were cultured in Dulbecco’s Modified Eagles’ Medium (DMEM, D5796; Sigma-Aldrich), WM164 and M229 (gifts from Dr. K.S.M. Smalley’s lab) were cultured in RPMI-1640 (R8758; Sigma-Aldrich). Mouse melanoma cell lines: B16F10 (CRL-6475, ATCC) was cultured in DMEM, SW1 and SM1 (gift from Dr. K.S.M. Smalley, Moffitt Cancer Center, Tampa, FL, USA) were cultured in RPMI. Human epithelial kidney cell lines: HEK293T (293T, CRL-3216; ATCC) and Vhl-KO-293T (gift from Dr. D. Zhou, the University of Texas Health Science Center, San Antonio, TX, USA) were cultured in DMEM. Mouse colon cancer cell lines: MC38 (ENH204-FP; Kerafast Inc.) was cultured in DMEM supplemented with 1 mM glutamine, […] non-essential amino acids (11140050; Thermo Fisher Scientific), 1 mM sodium pyruvate (11360070; Thermo Fisher Scientific), and 10 mM HEPES (15630080; Thermo Fisher Scientific). […]
Samples were lysed using radioimmunoprecipitation assay buffer (RIPA) lysis buffer (150 mM NaCl, 5 mM EDTA, 50 mM Tris pH 8.0, 0.5% sodium deoxycholate, 1% NP-40, 0.1% SDS) supplemented with 1 mM dithiothreitol and protease inhibitors. The lysates were separated by SDS-PAGE and analyzed using standard western blotting procedures ([Khan et al., 2019]). […]

NR4A1 and VHL = NR4A1 and VHL (Homo sapiens, UniProt P22736+P40337); experiment: Proximity ligation assay (PLA) for the NR4A1-VHL ternary complex; type: cell-based; design: endogenous in cells; host or cells: CHL-1 and A375 human melanoma cells; details: CHL-1 and A375 cells, 500 nM, 16 h, 0.5 μM MG132 pretreatment
Experimental: 5 × 10^4 CHL-1 and A375 cells were cultured in Nunc Lab-Tek Chamber Slide (177402; Thermo Fisher Scientific). The cells were treated with DMSO, 500 nM celastrol, and 500 nM NR-V04 for 16 h with MG132 inhibitor. The PLA was conducted with Duolink In Situ Red Starter Kit Mouse/Rabbit (DUO92101; Sigma-Aldrich) following the standard protocol. Additionally, a non-stain cell group was included as a negative control to account for background signal during PLA assay. The signal was detected using a confocal microscope (LSM 710; Zeiss). Primary antibody: NR4A1 (HPA059742, 2 μg/ml, isotype-rabbit; Sigma-Aldrich) and VHL (MA5-13940, 2 μg/ml, isotype-mouse; Thermo Fisher Scientific).

Yummer1.7 melanoma = Yummer1.7 melanoma syngeneic tumor model; type: in vivo, mouse
From the text: (§1) 7–9-wk-old C57BL/6J, B6.129S2-Ighm^tm1Cgn/J (002288), B6.129S2-Nr4a1^tm1Jmi/J (NR4A1^−/−, 006187), and NOD-SCID interleukin-2 receptor gamma null (NSG) mice were purchased from Jackson Laboratories. For all studies involving NR-V04 and celastrol, the compounds were formulated in 50% phosal PG, 45% miglyol 810N, and 5% polysorbate 80 and administered via i.p. injection.
For syngeneic tumor models, 5 × 10^5 cells MC38, Yumm1.7, and Yummer1.7, 1 × 10^5 cells of B16F10 were resuspended in PBS and implanted into 7–9-wk-old mice subcutaneously. For the tumor inhibition experiment, mice were treated with 1.8 mg/kg NR-V04 or 0.75 mg/kg celastrol by i.p. injection twice weekly. For the immune profile experiment, once tumors reached 0.5 cm in diameter, mice were treated with 1.8 mg/kg NR-V04 by i.p. injection twice weekly. […] Blood samples were taken from the submandibular (facial) vein before each treatment and 42 days later for hematological analysis, and body weight was measured twice per week up to day 42. […]
We administered 100 μg of anti-mouse CD8α antibody (Clone: 53-6.7; Bio X Cell) or rat IgG2a isotype control to each mouse every 4 days via i.p. injection. […] Toward the end of the experiment, we collected blood samples from mice in both treatment and control groups and assessed the efficiency of CD8^+ T cell depletion using flow cytometry analysis.

Yumm1.7 tumors = experiment: Yumm1.7 melanoma syngeneic tumor model; type: in vivo, mouse; details: Yumm1.7 (low immunogenicity), 1.8 mg/kg
From the text: as §1
For syngeneic tumor models, 5 × 10^5 cells MC38, Yumm1.7, and Yummer1.7, 1 × 10^5 cells of B16F10 were resuspended in PBS and implanted into 7–9-wk-old mice subcutaneously. For the tumor inhibition experiment, mice were treated with 1.8 mg/kg NR-V04 or 0.75 mg/kg celastrol by i.p. injection twice weekly. For the immune profile experiment, once tumors reached 0.5 cm in diameter, mice were treated with 1.8 mg/kg NR-V04 by i.p. injection twice weekly. For the toxicity experiment, male and female non-tumor-bearing mice were treated with 2 mg/kg NR-V04 for two doses in the first week and 5 mg/kg for another two doses in the second week. Blood samples were taken from the submandibular (facial) vein before each treatment and 42 days later for hematological analysis, and body weight was measured twice per week up to day 42. Mice were euthanized in accordance with the IACUC protocol once the largest tumors reached 2 cm in diameter, and tissues were collected for further analysis.

T1 sequence (P22736 whole entry): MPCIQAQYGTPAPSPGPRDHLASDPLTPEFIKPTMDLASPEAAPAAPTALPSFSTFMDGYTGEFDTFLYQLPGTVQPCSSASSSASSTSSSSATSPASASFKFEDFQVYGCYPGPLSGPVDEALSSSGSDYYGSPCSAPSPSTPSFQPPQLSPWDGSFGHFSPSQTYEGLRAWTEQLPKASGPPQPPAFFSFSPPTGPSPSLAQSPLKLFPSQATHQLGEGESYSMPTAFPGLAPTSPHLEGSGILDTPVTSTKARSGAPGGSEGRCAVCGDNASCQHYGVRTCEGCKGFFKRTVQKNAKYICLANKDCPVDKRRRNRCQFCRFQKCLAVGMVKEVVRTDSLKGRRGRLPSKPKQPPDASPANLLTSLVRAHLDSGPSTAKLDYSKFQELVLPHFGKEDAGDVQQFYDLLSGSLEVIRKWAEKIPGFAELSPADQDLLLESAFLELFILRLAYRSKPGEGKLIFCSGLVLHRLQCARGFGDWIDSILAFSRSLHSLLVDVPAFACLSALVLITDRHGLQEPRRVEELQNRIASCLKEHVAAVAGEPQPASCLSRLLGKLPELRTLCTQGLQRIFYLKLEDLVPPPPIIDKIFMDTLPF
Chain of NR4A1 and VHL (P22736 whole entry): as above
Chain of NR4A1 and VHL (P40337 whole entry): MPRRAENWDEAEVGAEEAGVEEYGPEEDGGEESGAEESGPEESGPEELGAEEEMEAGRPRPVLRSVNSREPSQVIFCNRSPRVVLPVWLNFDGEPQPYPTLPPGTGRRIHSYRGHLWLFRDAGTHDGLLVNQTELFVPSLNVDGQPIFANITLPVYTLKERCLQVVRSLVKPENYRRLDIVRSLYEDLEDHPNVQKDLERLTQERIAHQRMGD
Chain of NR4A1 and VHL (Q15369 whole entry partner): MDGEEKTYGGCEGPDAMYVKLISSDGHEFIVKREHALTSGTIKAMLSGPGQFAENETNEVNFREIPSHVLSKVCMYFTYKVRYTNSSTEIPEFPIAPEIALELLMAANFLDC
Chain of NR4A1 and VHL (Q15370 whole entry partner): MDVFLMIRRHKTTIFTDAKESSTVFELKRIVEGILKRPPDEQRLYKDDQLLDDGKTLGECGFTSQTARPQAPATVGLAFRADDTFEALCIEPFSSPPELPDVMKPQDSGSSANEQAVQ

CC1=C(O)C(=O)C=C2C1=CC=C1[C@@]2(C)CC[C@@]2(C)[C@@H]3C[C@](C)(C(=O)NCCOCCOCCOCCOCC(=O)N[C@H](C(=O)N4C[C@H](O)C[C@H]4C(=O)N[C@@H](C)c4ccc(-c5scnc5C)cc4)C(C)(C)C)CC[C@]3(C)CC[C@]12C [NR-V04]
DC50 (NR4A1): 519 nM | PLA signals (ternary complex formation NR4A1-VHL) (NR4A1 and VHL): induced strong PLA signals | tumor response with CD8^+ T cell depletion (Yummer1.7 melanoma; Yummer1.7, anti-CD8 antibody 100 µg/mouse, NR-V04 from day 7): desensitized tumors to NR-V04 treatment | tumor growth (Yummer1.7 melanoma; Yummer1.7 in WT mice, 1.8 mg/kg i.p. twice a week from day 7): effectively inhibited tumor growth | tumor growth (Yumm1.7 tumors): no tumor inhibitory effect
